The values that follow come from patent US6420563B1, “Small molecule modulators of G protein-coupled receptor six” (Arena Pharmaceuticals, Inc., priority 1998, dated 2002).

A short description of assay [1]: Food/water intake and body weight in 24-hour food deprived rats, oral gavage (PO). The class given is in vivo, rat. The settings on record: for Cumulative Food Intake (g) (8 hr post administration) / Body Weight Gain (g) (6 hr post administration) / Cumulative Water Intake (g) (6 hr post administration): 100 μmol/kg PO, second assay, Table D; for Cumulative Food Intake (g) (8 hr post administration): vehicle 14.0; for Body Weight Gain (g) (6 hr post administration) / Cumulative Water Intake (g) (6 hr post administration): vehicle 19.25; for water drunk (FIG. 10B): comparable to vehicle; for body weight gain (FIG. 10C): vehicle about 19.5 grams. The method, then:
Based upon the in vivo data developed, oral bioavailability of compound ARE112 was determined. The compound was administered by oral gavage at doses ranging from 6.75 to 54 mg/kg. The data presented in FIGS. 9A and 9B support the conclusion that oral administration of ARE112 also decreases food intake in both food-deprived and non-food deprived rats. […] In FIG. 9A, rats were deprived 24 hours prior to oral administration of the compound. In this assay, the vehicle-treated rats at 2.5 hours consumed […] of food while injected rats; particularly rats administered with 27 and 54 mg/kg of ARE 112, ate about 6 and 4 grams, respectively. […] (See, FIG. 9A).
Several other GPR6 inverse agonists were also assessed under 24-hour food deprived conditions, with PO administration. The analogs listed below were tested at 200 μmol/kg, which is equivalent to 54 mg/kg. In addition, ARE114 was also assessed at […]. Data are summarized below in Table C:
In a second assay, tested under the same conditions, several other analogs were assessed at 100 μmol/kg.
In FIG. 10, rats were deprived 24 hours prior to oral administration of the compound. In this assay, analogs ARE130, ARE135, ARE136, and ARE140, were administered at a dose of 100 μmol/kg. Three analogs, particularly, ARE130, ARE136 and ARE140 evidenced a slow intake of food (e.g., about 1 to 1.5 grams every two hours) over an eight hour period post-administration; while the vehicle rat consumed about 2 to 2.5 grams food every two hours. Similar to the vehicle rat, analog ARE135, an opened ring structure, evidenced that over an eight hour period post-administration the rats increasingly consumed about 2.5 grams every two hours. (See, FIG. 10A). Furthermore, the body weight of the vehicle rat and administered rats with analog ARE135 gained about 19.5 grams. On the other hand, the closed ring structures evidenced a decrease in body weight gain as follows: ARE112-6 grams, ARE130-9 grams, ARE136-11 grams and ARE140-14 grams. See, FIG. 10C.

The target in the next assay is T1, GPR6 (Homo sapiens, UniProt P46095).
T1 construct: expressed in transfected cells; 293 cells are used elsewhere
As to the kind of experiment: membrane-based cyclic AMP confirmation assay (Example 4C). The settings on record: mean +/- standard deviation (number of assays in brackets); read-out: IC50 Values Cyclic AMP Assay Example 4C. The class given is biochemical. An excerpt: Using an independent assay approach to provide confirmation of a directly identified candidate compound as set forth above, it is preferred that a confirmation assay then be utilized. In this case, the preferred confirmation assay is membrane-based cyclic AMP (cAMP) assay.
A modified Flash Plate™ Adenylyl Cyclase kit (New England Nuclear; Cat. No. SMP004A) was utilized for confirmation of candidate compounds directly identified as inverse agonists and agonists to endogenous, constitutively activated orphan GPCRs in accordance with the following protocol.
Transfected stable cells were harvested approximately three days after transfection. Membranes were prepared by homogenization of suspended cells in buffer containing 20 mM HEPES, pH 7.4 and 10 mM MgCl2. Homogenization was performed on ice using a Brinkman Polytron™ for approximately 10 seconds. The resulting homogenate was centrifuged at 20,000 rpm for 20 minutes at 4° C. The resulting pellet was then resuspended in buffer containing 20 mM HEPES, pH 7.4 and 0.1 mM EDTA, homogenized for 10 seconds, followed by centrifugation at 20,000 rpm for 20 minutes at 4° C. The resulting pellet can be stored at −80° C. until utilized. On the day of direct identification screening, the membrane pellet is slowly thawed at room temperature, resuspended in buffer containing 20 mM HEPES, pH 7.4, 100 mM NaCl and 10 mM MgCL2, to yield a final protein concentration of 0.60 mg/ml (the resuspended membranes are placed on ice until use).
Candidate compounds identified as per above (if frozen, thawed at room temperature) were added to plate wells (3 μl/well; 12 μM final assay concentration), together with 50 μl Membrane Protein (30 μg/well) and 50 μl of Assay Buffer. This admixture was then incubated for 30 minutes at room temperature, with gentle shaking.
Following the incubation, 100 μl of Detection Buffer was added to each well, followed by incubation for 2-20 hours. Plates were subsequently aspirated and then counted in a Wallac MicroBeta™ plate reader using “Prot. #31” (as per manufacturer instructions).

The target in a further assay is T2, GPR6:Gsα-Fusion Protein (Homo sapiens, UniProt P46095).
T2 construct: expressed in transfected cells
As to the kind of experiment: [35S]GTPγS membrane binding assay (Example 4A). The class given is biochemical. The method, then:
The assay plates were then centrifuged at 400 rpm for 15 minutes at room temperature and then subsequently aspirated and counted in a scintillation counter.
Membranes expressing the GPCR6:Gsα-Fusion Protein (see Example 2) and for use in the direct identification of candidate compounds as inverse agonists, agonists or partial agonists were prepared as follows:
All materials were kept on ice throughout the procedure. Firstly, the media was aspirated from a confluent monolayer of cells, followed by rinse with 10 ml cold PBS, followed by aspiration. Thereafter, 5 ml of membrane Scrape Buffer was added to scrape cells; this was followed by transfer of cellular extract into 50 ml centrifuge tubes (centrifuged at 20,000 rpm for 17 minutes at 4° C.). Thereafter, the supernatant was aspirated and the pellet was resuspended in 30 ml Membrane Wash Buffer followed by centrifuge at 20,000 rpm for 17 minutes at 4° C. The supernatant was then aspirated and the pellet resuspended in Binding Buffer. This was then homogenized using a Brinkman polytron™ homogenizer (15-20 second bursts until the all material was in suspension). This is referred to herein as “Membrane Protein”.
Candidate compounds (Tripos, Inc., St. Louis, Mo.) were received in 96-well plates (these can be frozen at −80° C.). Membrane Protein (or membranes with expression vector excluding the GPR6:Gsα-Fusion Protein, as control), were homogenized briefly until in suspension. Protein concentration was then determined using the Bradford Protein Assay set forth above. […] Thereafter, 100 ul GDP Buffer was added to each well of a Wallac Scintistrip™ (Wallac). A 5 ul pin-tool was then used to transfer 5 ul of a candidate compound into such well (i.e., 5 ul in total assay volume of 200 ul is a 1:40 ratio such that the final screening concentration of the candidate compound is 10 uM). Again, to avoid contamination, after each transfer step the pin tool was rinsed in three reservoirs comprising water (1×), ethanol (1×) and water (2×)—excess liquid should be shaken from the tool after each rinse and dried with paper towels and kimwipes™. Thereafter, 50 ul of Membrane Protein was added to each well (a control well comprising membranes without the GPCR Fusion Protein is also utilized), and pre-incubated for 5-10 minutes at room temperature (the plates were covered with foil in that the candidate compounds obtained from Tripos are light sensitive). Thereafter, 50 ul of [^35S]GTPγS (0.6 nM) in Binding Buffer was added to each well, followed by incubation on a shaker for 60 minutes at room temperature (again, in this example, plates were covered with foil). The assay was then stopped by spinning of the plates at 4000 RPM for 15 minutes at 22° C. The plates were then aspirated with an 8 channel manifold and sealed with plastic plate covers. The plates were then read on a Wallac 1450 using setting “Prot. #37” (as per manufacturer instructions).
The initial or “primary” screen designed to directly identify, e.g., human GPR6 receptor inverse agonists, consisted of the membrane-based GTPγS binding assay of Example 4A utilizing membranes prepared from 293 stable cells. Candidate compounds directly identified as inhibiting receptor-mediated increases in GTPγS as set forth below were considered active “leads”.
It is preferred that following such direct identification, IC50 (inverse agonist) or EC50 (agonist) values be determined; those having ordinary skill in the art are credited with utilizing IC50 and EC50 assay protocols of choice. FIG. 4 provides a representative IC50 curve for compound ARE112 using the assay protocol of Example 4A.

Setting [2] is: mean +/- SD (number of assays), read-out: IC50 Values (Table E, GTP Assay of Example 4A).
Where [3] appears, read: mean +/- standard deviation (number of assays in brackets), read-out: IC50 Values GTP Assay Example 4A.

Molecules are shown by their SMILES. Read-outs that look alike come from different tables or passages of the source.

T1 sequence (P46095 whole entry): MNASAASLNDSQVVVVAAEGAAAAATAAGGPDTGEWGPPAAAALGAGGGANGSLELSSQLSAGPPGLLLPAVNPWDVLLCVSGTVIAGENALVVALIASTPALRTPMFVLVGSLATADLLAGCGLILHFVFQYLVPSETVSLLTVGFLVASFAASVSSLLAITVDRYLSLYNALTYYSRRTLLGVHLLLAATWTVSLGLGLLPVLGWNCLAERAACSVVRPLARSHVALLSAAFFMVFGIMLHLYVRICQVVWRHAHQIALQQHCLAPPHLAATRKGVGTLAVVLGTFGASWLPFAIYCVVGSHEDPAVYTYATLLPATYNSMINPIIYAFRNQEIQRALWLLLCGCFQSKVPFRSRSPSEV
T2 sequence (P46095 with tags, fused parts or gaps): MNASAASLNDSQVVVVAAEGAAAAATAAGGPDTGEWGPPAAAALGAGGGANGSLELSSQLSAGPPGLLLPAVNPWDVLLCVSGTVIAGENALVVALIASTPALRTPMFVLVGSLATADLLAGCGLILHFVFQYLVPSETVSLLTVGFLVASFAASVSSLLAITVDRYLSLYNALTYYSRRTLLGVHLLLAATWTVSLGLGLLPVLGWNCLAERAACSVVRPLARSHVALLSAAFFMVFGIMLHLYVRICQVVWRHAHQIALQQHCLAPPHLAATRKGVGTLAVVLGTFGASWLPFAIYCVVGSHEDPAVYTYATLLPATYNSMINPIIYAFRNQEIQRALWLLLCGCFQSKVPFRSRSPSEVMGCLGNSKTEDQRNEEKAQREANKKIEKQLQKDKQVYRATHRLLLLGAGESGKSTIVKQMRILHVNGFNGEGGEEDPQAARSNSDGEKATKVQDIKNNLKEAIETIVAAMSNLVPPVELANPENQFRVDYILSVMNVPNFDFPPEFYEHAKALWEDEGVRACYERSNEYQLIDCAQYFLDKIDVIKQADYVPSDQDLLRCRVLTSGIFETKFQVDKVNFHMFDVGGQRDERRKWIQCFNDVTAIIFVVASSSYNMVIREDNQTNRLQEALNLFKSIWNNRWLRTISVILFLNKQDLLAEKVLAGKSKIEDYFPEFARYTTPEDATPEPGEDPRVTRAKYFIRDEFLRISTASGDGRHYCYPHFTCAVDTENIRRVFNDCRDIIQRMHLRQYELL

For `O=C(N=C1SSC2=NCCN21)c1cc2ccccc2s1` [ARE140, N-(5,6-dihydro-3H-imidazo[2,1-c]-1,2,4-dithiazol-3-ylidene)-benzothiophen-2-carboxamide], in assay [1], the “Cumulative Food Intake (g) (8 hr post administration)” value is on record as 9.6 g, the “Body Weight Gain (g) (6 hr post administration)” value came to 14.6 g and the “Cumulative Water Intake (g) (6 hr post administration)” value amounted to 20.0 g. Further, in assay [1] (100 μmol/kg oral), the “water drunk (FIG. 10B)” value is given as “about 19 grams” and the “body weight gain (FIG. 10C)” value amounted to 14 grams. The IC50 at GPR6 was 190 nM. Besides, the half-maximal inhibitory concentration (IC50) on GPR6:Gsα-Fusion Protein (setting [2]) is 170 nM. In addition, the IC50 at GPR6:Gsα-Fusion Protein (setting [3]) stood at 130 nM.
For `O=C(NC(=S)N1CCNC1=S)c1ccc2ccccc2c1` [ARE135, N-(2-thioxo-imidazolidine-1-carbothioyl)-naphthyl-2-carboxamide], in assay [1], the “Cumulative Food Intake (g) (8 hr post administration)” value was determined as 13.5 g, the “Body Weight Gain (g) (6 hr post administration)” value amounted to 19.5 g and the “Cumulative Water Intake (g) (6 hr post administration)” value worked out at 19.5 g. The “food intake every two hours” value in assay [1] (100 μmol/kg oral, over eight hour period post-administration (FIG. 10A), vehicle about 2 to 2.5 grams) was “about 2.5 grams”. In assay [1] (100 μmol/kg oral), the “water drunk (FIG. 10B)” value is “about 19 grams” and the “body weight gain (FIG. 10C)” value is recorded as “about 19.5 grams”. In addition, the IC50 at GPR6 was 710 nM. For the same molecule, on GPR6:Gsα-Fusion Protein (setting [2]), the IC50 is 100000 nM. Also, at GPR6:Gsα-Fusion Protein (setting [3]), the IC50 stood at 100000 nM.
With `O=C(NC(=S)N1CCNC1=S)c1ccc(F)cc1` [ARE127, N-(2-thioxo-imidazolidine-1-carbothioyl)-4-fluorobenzamide], the values for the IC50 on GPR6 and on GPR6:Gsα-Fusion Protein (setting [3]) were 480 nM and 1250 nM, respectively.
The like results for `O=C(NC(=S)N1CCNC1=S)c1ccco1` [ARE143, N-(2-thioxo-imidazolidine-1-carbothioyl)-furan-2-carboxamide] were, in that order, 160000 nM and 68300 nM.
The like results for `COc1ccc(C(=O)NC(=S)N2CCNC2=S)cc1` [ARE121, N-(2-thioxo-imidazolidine-1-carbothioyl)-4-methoxybenzamide] were, in that order, 55000 nM and 122000 nM.
Take `O=C(NC(=S)N1CCNC1=S)c1ccon1` [ARE149, N-(2-thioxo-imidazolidine-1-carbothioyl)-isoxazole-3-carboxamide]: the IC50 at GPR6 is 5830 nM; at GPR6:Gsα-Fusion Protein (setting [3]), 2430 nM.
Regarding `O=C(NC(=S)N1CCNC1=S)c1ccc(F)cc1F` [ARE133, N-(2-thioxo-imidazolidine-1-carbothioyl)-2,4-difluorobenzamide], the figures for the 50% inhibitory concentration (IC50) at GPR6 and at GPR6:Gsα-Fusion Protein (setting [3]) were 170 nM and 110 nM, respectively.
As for `O=C(NC(=S)N1CCNC1=S)c1ccc(Cl)cc1` [ARE119, N-(2-thioxo-imidazolidine-1-carbothioyl)-4-chlorobenzamide], the results for the IC50 on GPR6 and on GPR6:Gsα-Fusion Protein (setting [3]) were 1970 nM and 450 nM, respectively.
The like results for `Cc1cccc(C(=O)N=C2SSC3=NCCN32)c1` [ARE126, N-(5,6-dihydro-3H-imidazo[2,1-c]-1,2,4-dithiazol-3-ylidene)-3-methylbenzamide] were, in that order, 140 nM and 790 nM.
The like results for `O=C(N=C1SSC2=NCCN21)c1cccnc1` [ARE156, N-(5,6-dihydro-3H-imidazo[2,1-c]-1,2,4-dithiazol-3-ylidene)-pyridine-3-carboxamide] were, in that order, 133 nM and 670 nM.
Regarding `COc1cccc(C(=O)N=C2SSC3=NCCN32)c1` [ARE124, N-(5,6-dihydro-3H-imidazo[2,1-c]-1,2,4-dithiazol-3-ylidene)-3-methoxybenzamide], the IC50 at GPR6 amounted to 400 nM; at GPR6:Gsα-Fusion Protein (setting [3]), 310 nM.
The like results for `CC(C)(C)c1ccc(C(=O)N=C2SSC3=NCCN32)cc1` [ARE118, N-(5,6-dihydro-3H-imidazo[2,1-c]-1,2,4-dithiazol-3-ylidene)-4-tert-butylbenzamide] were, in that order, 370 nM and 650 nM.
For `O=C(N=C1SSC2=NCCN21)c1ccccc1F` [ARE132, N-(5,6-dihydro-3H-imidazo[2,1-c]-1,2,4-dithiazol-3-ylidene)-2-fluorobenzamide], the values for the concentration for half-maximal inhibition (IC50) at GPR6 and on GPR6:Gsα-Fusion Protein (setting [3]) were 100 nM and 350 nM, respectively.
The like results for `COc1ccc(C(=O)N=C2SSC3=NCCN32)cc1` [ARE122, N-(5,6-dihydro-3H-imidazo[2,1-c]-1,2,4-dithiazol-3-ylidene)-4-methoxybenzamide] were, in that order, 210 nM and 830 nM.
